Results reported in patent publication US20100261877A1, “PROCESS FOR ISOLATING THERAPEUTIC PEPTIDES” (priority 2009, published 2010).
Where a SMILES comes first, the peptide text is derived from it. Bridges are numbered along the chain shown (N, C = ends).

Experiments:
[1] = Solubility of SEQ ID NO. 1 in aqueous isopropanol solution; format: physicochemical
Description: 1 that is able to be dissolved in aqueous isopropanol solution, depending on the v/v % isopropanol:water. The very sharp increase in solubility between 40-60% isopropanol was very unexpected and the discovery of this unexpected result allowed for the successful isolation of SEQ ID NO. 1 by precipitation which was necessary for a viable large manufacturing scale-up required for commercial production.

[2] = Solubility of SEQ ID NO. 1 in aqueous ethanol solution; format: physicochemical
Description: The above general procedures were followed replacing isopropyl alcohol (IPA) with ethanol.
1 that is able to be dissolved in the aqueous ethanol solution, depending on the v/v % ethanol:water. The very sharp increase in solubility between 50-70 ethanol was very unexpected and the discovery of this unexpected result allowed for the successful isolation of SEQ ID NO. 1 by precipitation which was necessary for a viable large manufacturing scale-up required for commercial production.

[3] = biological target: T1, guanylate cyclase type C receptor (GCC) (Homo sapiens, UniProt P25092); details: in vitro, varying concentrations; cited from earlier work
T1 construct: endogenous in cells

[4] = tested on: small bowel motility, fluid secretion, visceral pain; details: oral, mice and rats; cited from earlier work

T1 sequence (P25092 24-1073): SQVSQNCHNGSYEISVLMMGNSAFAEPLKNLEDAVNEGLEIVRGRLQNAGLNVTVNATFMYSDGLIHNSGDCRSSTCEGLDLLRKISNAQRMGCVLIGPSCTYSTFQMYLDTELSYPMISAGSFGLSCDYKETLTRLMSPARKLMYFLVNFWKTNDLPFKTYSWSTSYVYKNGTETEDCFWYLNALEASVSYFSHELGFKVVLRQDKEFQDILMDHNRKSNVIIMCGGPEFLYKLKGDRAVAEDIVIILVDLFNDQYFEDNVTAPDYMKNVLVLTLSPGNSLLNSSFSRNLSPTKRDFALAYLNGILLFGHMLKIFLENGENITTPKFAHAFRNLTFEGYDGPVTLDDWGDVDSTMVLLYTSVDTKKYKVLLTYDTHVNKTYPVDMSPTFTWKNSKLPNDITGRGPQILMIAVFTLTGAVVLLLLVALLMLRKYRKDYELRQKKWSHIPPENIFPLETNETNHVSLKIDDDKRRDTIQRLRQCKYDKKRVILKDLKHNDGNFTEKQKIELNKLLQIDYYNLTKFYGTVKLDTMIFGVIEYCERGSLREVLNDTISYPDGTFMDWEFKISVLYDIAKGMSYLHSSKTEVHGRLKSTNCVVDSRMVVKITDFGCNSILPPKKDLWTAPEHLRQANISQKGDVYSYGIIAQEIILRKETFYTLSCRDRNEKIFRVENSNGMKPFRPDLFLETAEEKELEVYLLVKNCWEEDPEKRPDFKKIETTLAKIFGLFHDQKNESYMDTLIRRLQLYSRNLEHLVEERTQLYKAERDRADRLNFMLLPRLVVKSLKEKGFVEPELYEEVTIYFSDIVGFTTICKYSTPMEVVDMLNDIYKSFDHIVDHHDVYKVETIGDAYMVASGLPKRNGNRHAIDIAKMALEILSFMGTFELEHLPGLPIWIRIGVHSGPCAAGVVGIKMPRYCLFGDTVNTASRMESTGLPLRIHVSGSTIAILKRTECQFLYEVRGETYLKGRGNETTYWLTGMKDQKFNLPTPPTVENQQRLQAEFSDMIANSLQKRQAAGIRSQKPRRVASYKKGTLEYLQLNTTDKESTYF

## C[C@@H]1NC(=O)[C@@H]2CCCN2C(=O)[C@H](CC(N)=O)NC(=O)[C@@H]2CSSC[C@H](N)C(=O)N[C@H]3CSSC[C@H](NC1=O)C(=O)N[C@@H]([C@@H](C)O)C(=O)NCC(=O)N[C@H](C(=O)N[C@@H](Cc1ccc(O)cc1)C(=O)O)CSSC[C@H](NC(=O)[C@H](Cc1ccc(O)cc1)NC(=O)[C@H](CCC(=O)O)NC3=O)C(=O)N2 [SEQ ID No. 1, Cys-Cys-Glu-Tyr-Cys-Cys-Asn-Pro-Ala-Cys-Thr-Gly-Cys-Tyr] (H-CCEYCCNPACTGCY-OH; disulfide 1-6, 2-10, 5-13)
[1]; IPA 0 v/v % in water
  amount of SEQ ID NO. 1 able to be dissolved: 1.3 mg/mL
[1]; IPA 5 v/v % in water
  amount of SEQ ID NO. 1 able to be dissolved: 1.8 mg/mL
[1]; IPA 10 v/v % in water
  amount of SEQ ID NO. 1 able to be dissolved: 2.3 mg/mL
[1]; IPA 15 v/v % in water
  amount of SEQ ID NO. 1 able to be dissolved: 3.3 mg/mL
[1]; IPA 20 v/v % in water
  amount of SEQ ID NO. 1 able to be dissolved: 4.3 mg/mL
[1]; IPA 25 v/v % in water
  amount of SEQ ID NO. 1 able to be dissolved: 4.8 mg/mL
[1]; IPA 30 v/v % in water
  amount of SEQ ID NO. 1 able to be dissolved: 6.0 mg/mL
[1]; IPA 35 v/v % in water
  amount of SEQ ID NO. 1 able to be dissolved: 7.0 mg/mL
[1]; IPA 40 v/v % in water
  amount of SEQ ID NO. 1 able to be dissolved: 13.8 mg/mL
[1]; IPA 45 v/v % in water
  amount of SEQ ID NO. 1 able to be dissolved: 47.8 mg/mL
[1]; IPA 50 v/v % in water
  amount of SEQ ID NO. 1 able to be dissolved: 120.3 mg/mL
[1]; IPA 55 v/v % in water
  amount of SEQ ID NO. 1 able to be dissolved: 162.5 mg/mL
[1]; IPA 60 v/v % in water
  amount of SEQ ID NO. 1 able to be dissolved: 138.5 mg/mL
[1]; IPA 65 v/v % in water
  amount of SEQ ID NO. 1 able to be dissolved: 106.5 mg/mL
[1]; IPA 70 v/v % in water
  amount of SEQ ID NO. 1 able to be dissolved: 65.7 mg/mL
[1]; IPA 75 v/v % in water
  amount of SEQ ID NO. 1 able to be dissolved: 26.5 mg/mL
[1]; IPA 80 v/v % in water
  amount of SEQ ID NO. 1 able to be dissolved: 19.0 mg/mL
[1]; IPA 85 v/v % in water
  amount of SEQ ID NO. 1 able to be dissolved: 12.5 mg/mL
[1]; IPA 90 v/v % in water
  amount of SEQ ID NO. 1 able to be dissolved: 9.0 mg/mL
[1]; IPA 95 v/v % in water
  amount of SEQ ID NO. 1 able to be dissolved: 4.5 mg/mL
[1]; IPA 100 v/v %
  amount of SEQ ID NO. 1 able to be dissolved: 0.3 mg/mL
[2]; EtOH 0 v/v % in water
  amount of SEQ ID NO. 1 able to be dissolved: 0.50 mg/mL
[2]; EtOH 5 v/v % in water
  amount of SEQ ID NO. 1 able to be dissolved: 0.25 mg/mL
[2]; EtOH 10 v/v % in water
  amount of SEQ ID NO. 1 able to be dissolved: 0.75 mg/mL
[2]; EtOH 15 v/v % in water
  amount of SEQ ID NO. 1 able to be dissolved: 1.00 mg/mL
[2]; EtOH 20 v/v % in water
  amount of SEQ ID NO. 1 able to be dissolved: 0.75 mg/mL
[2]; EtOH 25 v/v % in water
  amount of SEQ ID NO. 1 able to be dissolved: 3.00 mg/mL
[2]; EtOH 30 v/v % in water
  amount of SEQ ID NO. 1 able to be dissolved: 3.00 mg/mL
[2]; EtOH 35 v/v % in water
  amount of SEQ ID NO. 1 able to be dissolved: 2.75 mg/mL
[2]; EtOH 40 v/v % in water
  amount of SEQ ID NO. 1 able to be dissolved: 2.25 mg/mL
[2]; EtOH 45 v/v % in water
  amount of SEQ ID NO. 1 able to be dissolved: 3.50 mg/mL
[2]; EtOH 50 v/v % in water
  amount of SEQ ID NO. 1 able to be dissolved: 9.25 mg/mL
[2]; EtOH 55 v/v % in water
  amount of SEQ ID NO. 1 able to be dissolved: 179.25 mg/mL
[2]; EtOH 60 v/v % in water
  amount of SEQ ID NO. 1 able to be dissolved: 347.50 mg/mL
[2]; EtOH 65 v/v % in water
  amount of SEQ ID NO. 1 able to be dissolved: 430.00 mg/mL
[2]; EtOH 70 v/v % in water
  amount of SEQ ID NO. 1 able to be dissolved: 441.50 mg/mL
[2]; EtOH 75 v/v % in water
  amount of SEQ ID NO. 1 able to be dissolved: 304.00 mg/mL
[2]; EtOH 80 v/v % in water
  amount of SEQ ID NO. 1 able to be dissolved: 45.25 mg/mL
[2]; EtOH 85 v/v % in water
  amount of SEQ ID NO. 1 able to be dissolved: 10.25 mg/mL
[2]; EtOH 90 v/v % in water
  amount of SEQ ID NO. 1 able to be dissolved: 10.00 mg/mL
[2]; EtOH 95 v/v % in water
  amount of SEQ ID NO. 1 able to be dissolved: 3.75 mg/mL
[2]; EtOH 100 v/v %
  amount of SEQ ID NO. 1 able to be dissolved: 0.50 mg/mL
[3]
  cGMP in human intestinal cells: increased cGMP
[4]
  effects on small bowel motility, fluid secretion and visceral pain: promising effects on increasing small bowel motility, fluid secretion and decreasing visceral pain
